According to US11617715B2, “Methods and compositions for modifying the behavior of animals” (Texas Tech University System, priority 2016, dated 2023):

Tested on: dog barking and jumping
Test: Teaser dog kennel test of dog barking and jumping
Format: in vivo
Conditions: kennel dogs with teaser dog; for effectiveness in reducing barking and jumping (Quinoline compared to Androstenone): Study 3
Description: The efficacy of Quinoline was tested in three studies conducted to determine if Quinoline would reduce dog barking and jumping. The composition used in the experiments comprised approximately 4 micrograms per milliliter of Quinoline.
The basic parameters of the test involved walking a teaser dog in the center aisle of a dog kennel with test dogs on either side in kennels. The kennels were chain-linked fence with concrete floors. The researchers walked a teaser dog down the aisle and recorded dogs jumping and barking over a two minute period.
In the first study, three treatments were evaluated. Treatment 1 represented no treatment of any kind. The teaser animal simply stood at the test subjects' kennel.
Treatment 2 represented a control treatment. In this case, the delivery vehicle (isopropyl alcohol) spray was administered without Quinoline.
In treatment 3, Quinoline was administered to the test subject animals.
In study 2, the efficacy of Quinoline alone was tested. Test 2 was conducted a week after test 1. The same procedure was used in study 2 except that the test animals were only subject to the delivery of Quinoline.
In study 3, Quinoline was compared to Androstenone (the compound described in U.S. Pat. No. 9,044,395). Again, the same procedures were used in study 3; the test animals were subject to Quinoline and Androstenone.

[1] = Study 1, treatment 3, Quinoline approximately 4 micrograms per milliliter, spray
[2] = Study 2, Quinoline alone, a week after study 1

Row | SMILES | effectiveness in reducing barking and jumping (Quinoline compared to Androstenone) | reduced barking [1] | reduced jumping [1] | reduced barking [2] | reduced jumping [2]
1 | C[C@]12CCC(=O)C[C@@H]1CC[C@@H]1[C@@H]2CC[C@]2(C)C=CC[C@@H]12 [Androstenone, reference compound] | approximately equivalently effective |  |  |  | 
2 | c1ccc2ncccc2c1 [Quinoline] | approximately equivalently effective | 80% | 90% | 100% | 90%
